One data set can be described thus: in vitro. It counts as in vitro ADME. The conditions noted are these: pH 7.4, 0.5 μM compound, 0.25 mg/mL microsomes. The method, then:
The metabolic stability of the cytochalasins was evaluated in human pooled liver human microsomes (20 mg/ml, GIBCO) and pooled liver CD1 mouse microsomes (20 mg/ml, GIBCO). Test cytochalasins were prepared at a concentration of 0.5 μM and incubated with 0.25 mg/mL liver microsomes at pH 7.4), and the DMSO concentration was lower than 1%. The reaction was started by adding the cofactor NADPH at […]. Samples were taken at time point 0 (immediately following the addition of the co-factor), 5, 10, 20, 30 and 60 minutes. The reaction was stopped by adding quench solution containing acetonitrile:methanol (1:1) (internal standard tolbutamide at 50 nM). The samples were centrifuged (3500 rpm/30 min.) to obtain the pellet of precipitated microsomal protein. The supernatant fractions were quantified by LC-MS/MS (liquid chromatography-tandem mass spectrometry) Prominence UFLC (Shimadzu Corporation, Kyoto, Japan) and interfaced with an LCMS-8045 triple quadrupole mass spectrometer (Shimadzu Corporation, Kyoto, Japan) with an electrospray ionization source (ESI). The peak area ratios (analyte/internal standard) were converted to the % remaining using the area ratio at time 0 as 100%. The half-life (t1/2 = ln(2)/k) in minutes and intrinsic clearance (Clint = k x 1000/(0.25)) in μL/min/mg were calculated using a nonlinear regression from the % remaining versus the incubation time. From this plot, the slope (k) was determined. The chromatogram for analysis was obtained on a Supelco Ascentis express C18 column (3 cm x 2.1 mm, 5 μM). The mobile phases consisted of water + 0.1% formic acid (A) and acetonitrile + 0.1% formic acid (B). The mobile phase was eluted in binary gradient mode, and the gradient was as follows: 0 min, 95% A; 0.05 mins. 95% A; 0.3 mins: 2% A; 0.7 mins: 2% A; 0.8 mins: 95% A; 1.15 mins 95% A; and 2.0 mins 95% A. The run time was 2 minutes, the sample injection volume was 10 μL, and the flow rate was 0.7 mL/min.

Data set [1] can be described thus: physchem. The data set is classed as physicochemical. Particulars: pH 7.4, from LC retention time calibration; read-out: LogD 7.4 (Oct/buff). The method, then: To analyse cytochalasin lipophilicity, a methodology based on the retention time of molecules in stationary phase was used in LC-MS/MS (liquid chromatography-tandem mass spectrometry) Prominence UFLC (Shimadzu Corporation, Kyoto, Japan) and an interface with an LCMS-8045 triple quadrupole mass spectrometer (Shimadzu Corporation, Kyoto, Japan) with an electrospray ionization source (ESI). The chromatogram was obtained using a Supelco Ascentis express RP amide HPLC column (5 cm x 2.1 mm, 2.7 μM). The mobile phases consisted of 5% methanol in 10 mM ammonium acetate pH 7.4 (A) and 100% methanol (B). The mobile phase was eluted in binary gradient mode, and the gradient was as follows: 0 min, 95% A; 0.3 mins. 100% A; 5.2 mins. 0% A; 5.6 mins. 0% A; 5.8 mins. 100% A; 7.0 mins. And 100% A. The run time was 7 minutes, and the sample injection volume was 5 μL. Test compounds were prepared at 1.0 mg/mL by adding the stock solution at (1:1) mobile phases A:B (internal standard at 200 nM), and the DMSO concentration was lower than 2%. […]. The retention time (in minutes) of each of the eight standards was plotted against their LogD values. The resulting equation for the calibration curve (y = mx + b) was used to calculate the LogD values for the cytochalasins.

Data set [2] can be described thus: physchem. The conditions noted are these: aqueous buffer, kinetic from dmso stock. The data set is classed as physicochemical. As for the experimental part: The plate was sealed and shaken for 24 hours (200 rpm, r.t.). The precipitates on the incubation plate were removed by centrifugation (15 min., 3000 rpm, r.t.). The supernatant fractions were quantified by LC-MS/MS (liquid chromatography-tandem mass spectrometry) Prominence UFLC (Shimadzu Corporation, Kyoto, Japan) and interface with an LCMS-8045 triple quadrupole mass spectrometer (Shimadzu Corporation, Kyoto, Japan) with an electrospray ionization source (ESI). From a 10 mM standard solution, an intermediate standard dilution of 0.5 mM in a 1:1 acetonitrile:water solution was prepared. Calibration curves were prepared for each cytochalasin by diluting the intermediate standard several times to reach the desired concentrations of 50, 40, 20, 2, and 1 μM. The resulting equation for the calibration curve (y = mx + b) was used to calculate the experimental concentration values for the cytochalasins. The chromatogram for analysis was obtained on a Supelco Ascentis express C18 column (3 cm x 2.1 mm, 5 μM). The mobile phases consisted of water + 0.05% formic acid (A) and acetonitrile + 0.05% formic acid (B). The mobile phase was eluted in binary gradient mode, and the gradient was as follows: 0 min, 98% A; 1.2 mins. 2% A; 2.0 mins: 2% A; and re-equilibration time: 0.6 min., 98% A. The run time was 2 minutes, the sample injection volume was 5 μL, and the flow rate was 0.6 mL/min.

The test system of the next data set is T. cruzi. Description: Screening of natural product collection against T. cruzi (cell infection assay). It counts as cell-based. Particulars: Trypanosoma cruzi; compound concentration of 50 μM. The method, then:
A screening of a natural product collection was performed by using cell assays for infection with Trypanosoma cruzi and Leishmania infantum. The collection includes 320 compounds from the metabolic classes terpenes, alkaloids, peptides and amides that were isolated by plant species or endophytic fungi. For further evaluation in this study, cytochalasins A-D (CAS numbers: CytA: 14110-64-6, CytB: 14930-96-2, CytC: 22144-76-9, CytD: 22144-77-0) were obtained from Sigma-Aldrich (St. Louis, MO, USA). The purity of these compounds was ≥97%. The stock solution of the compounds was prepared in 100% DMSO (dimethyl sulfoxide—Sigma-Aldrich).

Setting [3] is: CD1, mouse, read-out: Mouse liver microsome (MsLM) CLint(mic).
The mark [4] stands for this setting: human, read-out: Human liver microsome (HLM) CLint(mic).
Where [5] appears, read: PBS pH 2.0, 24 h, read-out: Kinetic Solubility pH 2.0 (LogS) (converted).
The mark [6] stands for this setting: PBS pH 7.4, 24 h, read-out: Kinetic Solubility pH 7.4 (LogS) (converted).

Values after ≈ are worked out from the molar mass of the structure shown. Like-named read-outs stand apart in the source and are kept apart here.

On to `C=C1[C@@H](C)[C@H]2[C@H](Cc3ccccc3)NC(=O)[C@]23OC(=O)/C=C/C(=O)CCC[C@@H](C)C/C=C/[C@H]3[C@@H]1O` [Cytochalasin A], for which the microsomal CLint stood at 167 ± 9.12 µL/min/mg in the data set “in vitro” (setting [3]) and 7.86 ± 2.05 µL/min/mg in “in vitro” (setting [4]). Also, the chromatographic logD in “physchem [1]” turned out to be 3.907 ± 0.014. Besides, the solubility (kinetic) is 39.8 µM (≈ 19 µg/mL) in the data set “physchem [2]” (setting [5]) and 69.2 µM (≈ 33 µg/mL) in the data set “physchem [2]” (setting [6]). Also, testing at 50 µM in the data set with T. cruzi gave an inhibition of 99.7%.

`C=C1[C@@H](C)[C@H]2[C@H](Cc3ccccc3)NC(=O)[C@]23OC(=O)/C=C/[C@H](O)CCC[C@@H](C)C/C=C/[C@H]3[C@@H]1O` [Cytochalasin B]: the microsomal CLint was 62.9 µL/min/mg in “in vitro” (setting [3]) and 217 ± 6.05 µL/min/mg in “in vitro” (setting [4]). In “physchem [1]”, the chromatographic logD was 3.361 ± 0.008. The solubility (kinetic) in the data set “physchem [2]” (setting [5]) and in the data set “physchem [2]” (setting [6]) was 77.6 µM (≈ 37.2 µg/mL) each time. The inhibition at 50 µM with T. cruzi stood at 79.4%.

As to `CC(=O)OC1C=CC(C)(O)C(=O)C(C)CC=CC2C(O)C(C)=C(C)C3C(Cc4ccccc4)NC(=O)C123` (stereo not shown) [Cytochalasin C], in “in vitro” (setting [4]), the microsomal CLint turned out to be 144 ± 15.8 µL/min/mg. In “physchem [1]”, the chromatographic logD was 3.434 ± 0.003. Moreover, the kinetic solubility in the data set “physchem [2]” (setting [5]) was 17 µM (≈ 8.62 µg/mL); in the data set “physchem [2]” (setting [6]) it was 46.8 µM (≈ 23.7 µg/mL). In addition, 50 µM produced 72.8% inhibition in the data set on T. cruzi.

Consider `C=C1[C@@H](C)[C@H]2[C@H](Cc3ccccc3)NC(=O)[C@]23[C@H](OC(C)=O)/C=C/[C@@](C)(O)C(=O)[C@@H](C)C/C=C/[C@H]3[C@@H]1O` [Cytochalasin D], for which the microsomal CLint in the data set “in vitro” (setting [3]) stood at 163 ± 22.4 µL/min/mg. Moreover, in the data set “physchem [1]”, the chromatographic logD came out at 3.043 ± 0.004. Moreover, the solubility (kinetic) was 42.7 µM (≈ 21.7 µg/mL) in the data set “physchem [2]” (setting [5]) and 46.8 µM (≈ 23.7 µg/mL) in the data set “physchem [2]” (setting [6]). The inhibition at 50 µM with T. cruzi was found to be 69.5%.

Source of the values: paper PMC9529094, “Identification of natural cytochalasins as leads for neglected tropical diseases drug discovery” (PLoS ONE, 2022).
